Test results published in patent publication US9676701B2, “Cyclopropylamine derivatives useful as LSD1 inhibitors” (Oryzon Genomics, S.A., priority 2010, dated 2017).
pKi: −log10 of the molar value. Counter-ions that a name gives are not always drawn.

Legend:
MAO-A = MAO-A (Homo sapiens (Human), UniProt P21397); details: read-out: MAO-A (Ki)
MAO-B = MAO-B (Homo sapiens (Human), UniProt P27338); details: read-out: MAO-B (Ki)
[1] = target: Human recombinant LSD1 protein (Homo sapiens (Human), UniProt O60341); test: biochemical

Sequence of MAO-B (P27338 whole entry): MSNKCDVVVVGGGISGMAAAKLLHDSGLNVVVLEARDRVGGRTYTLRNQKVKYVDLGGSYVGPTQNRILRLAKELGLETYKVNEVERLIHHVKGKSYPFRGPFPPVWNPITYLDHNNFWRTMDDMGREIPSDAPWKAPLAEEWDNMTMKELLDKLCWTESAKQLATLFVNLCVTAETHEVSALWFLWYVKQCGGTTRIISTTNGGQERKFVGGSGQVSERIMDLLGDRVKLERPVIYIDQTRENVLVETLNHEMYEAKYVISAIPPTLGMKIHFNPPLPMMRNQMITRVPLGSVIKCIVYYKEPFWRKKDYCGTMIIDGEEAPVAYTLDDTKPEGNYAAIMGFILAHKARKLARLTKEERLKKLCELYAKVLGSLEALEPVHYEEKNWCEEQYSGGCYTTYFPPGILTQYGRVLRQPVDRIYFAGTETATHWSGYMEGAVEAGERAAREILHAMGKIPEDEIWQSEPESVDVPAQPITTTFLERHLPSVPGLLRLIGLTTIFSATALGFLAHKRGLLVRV
Sequence of MAO-A (P21397 whole entry): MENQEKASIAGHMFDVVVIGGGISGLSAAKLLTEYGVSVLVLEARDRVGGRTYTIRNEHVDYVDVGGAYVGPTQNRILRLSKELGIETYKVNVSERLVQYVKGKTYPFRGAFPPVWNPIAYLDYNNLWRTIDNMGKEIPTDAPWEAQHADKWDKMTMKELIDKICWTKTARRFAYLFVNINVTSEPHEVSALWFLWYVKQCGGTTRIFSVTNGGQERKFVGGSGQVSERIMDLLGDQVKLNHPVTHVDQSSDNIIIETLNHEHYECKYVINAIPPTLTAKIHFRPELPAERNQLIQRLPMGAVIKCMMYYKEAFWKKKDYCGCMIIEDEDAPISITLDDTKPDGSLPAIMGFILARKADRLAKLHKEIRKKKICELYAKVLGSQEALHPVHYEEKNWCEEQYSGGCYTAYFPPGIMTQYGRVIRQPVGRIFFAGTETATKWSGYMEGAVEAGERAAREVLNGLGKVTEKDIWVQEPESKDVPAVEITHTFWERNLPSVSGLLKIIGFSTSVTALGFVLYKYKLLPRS

Row | SMILES | pKi (MAO-A) | pKi (MAO-B) | pKi [1]
1 | N[C@H]1C[C@@H]1c1ccc(-c2ccc(Cl)s2)nc1 (relative stereo) [Example 31, (trans)-2-(6-(5-chlorothiophen-2-yl)pyridin-3-yl)cyclopropanamine hydrochloride] | 4.40 to 6.00 | 4.40 to 6.00 | 7.00 to 9.00
2 | N#Cc1ccc(-c2ccc([C@H]3C[C@@H]3N)cn2)s1 (relative stereo) [Example 56, 5-(5-((trans)-2-aminocyclopropyl)pyridin-2-yl)thiophene-2-carbonitrile hydrochloride] | 4.40 to 6.00 | 4.40 to 6.00 | 7.00 to 9.00
3 | CCS(=O)(=O)Nc1cccc(-c2ccc([C@H]3C[C@@H]3N)cn2)c1 (relative stereo) [Example 98, N-(3-(5-((trans)-2-aminocyclopropyl)pyridin-2-yl)phenyl)ethanesulfonamide hydrochloride] | 4.40 to 6.00 | 4.40 to 6.00 | 7.00 to 9.00
4 | N[C@H]1C[C@@H]1c1ccc(-c2cc(O)ccc2Cl)nc1 (relative stereo) [Example 47, 3-(5-((trans)-2-aminocyclopropyl)pyridin-2-yl)-4-chlorophenol hydrochloride] | 4.40 to 6.00 | 4.40 to 6.00 | 6.00 to 7.00
5 | COc1cccc(-c2ccc([C@H]3C[C@@H]3N)cn2)c1F (relative stereo) [Example 41, (trans)-2-(6-(2-fluoro-3-methoxyphenyl)pyridin-3-yl)cyclopropanamine hydrochloride] | 4.40 to 6.00 | 4.40 to 6.00 | 6.00 to 7.00
6 | N[C@H]1C[C@@H]1c1ccc(-c2cc(O)cc(F)c2)nc1 (relative stereo) [Example 24, 3-(5-((trans)-2-aminocyclopropyl)pyridin-2-yl)-5-fluorophenol hydrochloride] | 4.40 to 6.00 | 4.40 to 6.00 | 7.00 to 9.00
7 | COc1ccc(C#N)cc1-c1ccc([C@H]2C[C@@H]2N)cn1 (relative stereo) [Example 72, 3-(5-((trans)-2-aminocyclopropyl)pyridin-2-yl)-4-methoxybenzonitrile hydrochloride] | 4.40 to 6.00 | 4.40 to 6.00 | 6.00 to 7.00
8 | CS(=O)(=O)Nc1cc(-c2ccc([C@H]3C[C@@H]3N)cn2)ccc1F (relative stereo) [Example 97, N-(5-(5-((trans)-2-aminocyclopropyl)pyridin-2-yl)-2-fluorophenyl)methanesulfonamide hydrochloride] | 4.40 to 6.00 | 4.40 to 6.00 | 6.00 to 7.00
9 | CS(=O)(=O)Nc1ccccc1-c1ccc([C@H]2C[C@@H]2N)cn1 (relative stereo) [Example 71, N-(2-(5-((trans)-2-aminocyclopropyl)pyridin-2-yl)phenyl)methanesulfonamide hydrochloride] | 4.40 to 6.00 | 4.40 to 6.00 | 6.00 to 7.00
10 | N[C@H]1C[C@@H]1c1ccc(-c2cccc(O)c2)cc1 (relative stereo) [Example 4, 4′-((trans)-2-aminocyclopropyl)biphenyl-3-ol hydrochloride] | 4.40 to 6.00 | 4.40 to 6.00 | 7.00 to 9.00
11 | COc1ccc(F)c(-c2ccc([C@H]3C[C@@H]3N)cn2)c1 (relative stereo) [Example 40, (trans)-2-(6-(2-fluoro-5-methoxyphenyl)pyridin-3-yl)cyclopropanamine hydrochloride] | 4.40 to 6.00 | 4.40 to 6.00 | 6.00 to 7.00
12 | N[C@H]1C[C@@H]1c1ccc(-c2cccc(O)c2F)nc1 (relative stereo) [Example 26, 3-(5-((trans)-2-aminocyclopropyl)pyridin-2-yl)-2-fluorophenol hydrochloride] | 4.40 to 6.00 | 4.40 to 6.00 | 6.00 to 7.00
13 | N[C@H]1C[C@@H]1c1ccc(-c2csc3ccccc23)nc1 (relative stereo) [Example 55, (trans)-2-(6-(benzo[b]thiophen-3-yl)pyridin-3-yl)cyclopropanamine hydrochloride] | 4.40 to 6.00 | 4.40 to 6.00 | 6.00 to 7.00
14 | N[C@H]1C[C@@H]1c1ccc(-c2cc(O)c(F)c(F)c2)nc1 (relative stereo) [Example 59, 5-(5-((trans)-2-aminocyclopropyl)pyridin-2-yl)-2,3-difluorophenol hydrochloride] | – | 4.40 to 6.00 | 7.00 to 9.00

Next, values leading:

Row | pKi (MAO-A) | pKi (MAO-B) | pKi [1] | SMILES
15 | 4.40 to 6.00 | 4.40 to 6.00 | 6.00 to 7.00 | N[C@H]1C[C@@H]1c1ccc(-c2cccc(C(F)(F)F)c2)cc1 (relative stereo) [Example 1, (trans)-2-(3′-(trifluoromethyl)biphenyl-4-yl)cyclopropanamine hydrochloride]
16 | 4.40 to 6.00 | 4.40 to 6.00 | 6.00 to 7.00 | N[C@H]1C[C@@H]1c1ccc(-c2cccc(C(F)(F)F)c2F)nc1 (relative stereo) [Example 30, (trans)-2-(6-(2-fluoro-3-(trifluoromethyl)phenyl)pyridin-3-yl)cyclopropanamine hydrochloride]
17 | 4.40 to 6.00 | 4.40 to 6.00 | 6.00 to 7.00 | N#Cc1ccc(-c2ccc([C@H]3C[C@@H]3N)cn2)cc1 (relative stereo) [Example 12, 4-(5-((trans)-2-aminocyclopropyl)pyridin-2-yl)benzonitrile dihydrochloride]
18 | – | – | 7.00 to 9.00 | CC(C)S(=O)(=O)Nc1cccc(-c2ccc([C@H]3C[C@@H]3N)cc2)c1 (relative stereo) [Example 69, N-(4′-((trans)-2-aminocyclopropyl)biphenyl-3-yl)propane-2-sulfonamide hydrochloride]
19 | 4.40 to 6.00 | 4.40 to 6.00 | 6.00 to 7.00 | N[C@H]1C[C@@H]1c1ccc(-c2cc(C(F)(F)F)ccc2Cl)nc1 (relative stereo) [Example 50, (trans)-2-(6-(2-chloro-5-(trifluoromethyl)phenyl)pyridin-3-yl)cyclopropanamine hydrochloride]
20 | 4.40 to 6.00 | 4.40 to 6.00 | 6.00 to 7.00 | N[C@H]1C[C@@H]1c1ccc(-c2cccc(C(F)(F)F)c2)nc1Cl (relative stereo) [Example 76, (trans)-2-(2-chloro-6-(3-(trifluoromethyl)phenyl)pyridin-3-yl)cyclopropanamine hydrochloride]
21 | – | – | 7.00 to 9.00 | N[C@H]1C[C@@H]1c1ccc(-c2cccc(NS(=O)(=O)c3ccccc3)c2)cc1 (relative stereo) [Example 68, N-(4′-((trans)-2-aminocyclopropyl)biphenyl-3-yl)benzenesulfonamide hydrochloride]
22 | 4.40 to 6.00 | 4.40 to 6.00 | 6.00 to 7.00 | N[C@H]1C[C@@H]1c1ccc(-c2ccc(O)cc2)cc1 (relative stereo) [Example 3, 4′-((trans)-2-aminocyclopropyl)biphenyl-4-ol hydrochloride]
23 | 4.40 to 6.00 | 4.40 to 6.00 | 6.00 to 7.00 | N[C@H]1C[C@@H]1c1ccc(-c2cc(C(F)(F)F)ccc2F)nc1 (relative stereo) [Example 49, (trans)-2-(6-(2-fluoro-5-(trifluoromethyl)phenyl)pyridin-3-yl)cyclopropanamine hydrochloride]
24 | 4.40 to 6.00 | 4.40 to 6.00 | 6.00 to 7.00 | Cc1nc(-c2cccc(C(F)(F)F)c2)ccc1[C@H]1C[C@@H]1N (relative stereo) [Example 80, (trans)-2-(2-methyl-6-(3-(trifluoromethyl)phenyl)pyridin-3-yl)cyclopropanamine hydrochloride]
25 | 4.40 to 6.00 | 4.40 to 6.00 | 6.00 to 7.00 | COc1cc(-c2ccc([C@H]3C[C@@H]3N)cn2)ccc1F (relative stereo) [Example 38, (trans)-2-(6-(4-fluoro-3-methoxyphenyl)pyridin-3-yl)cyclopropanamine hydrochloride]
26 | – | – | 7.00 to 9.00 | N[C@H]1C[C@@H]1c1ccc(-c2cc(O)cc(Cl)c2)cc1 (relative stereo) [Example 67, 4′-((trans)-2-aminocyclopropyl)-5-chlorobiphenyl-3-ol hydrochloride]
27 | 4.40 to 6.00 | 4.40 to 6.00 | 6.00 to 7.00 | N[C@H]1C[C@@H]1c1ccc(-c2ccc(O)cc2)nc1 (relative stereo) [Example 16, 4-(5-((trans)-2-aminocyclopropyl)pyridin-2-yl)phenol hydrochloride]
28 | 4.40 to 6.00 | 4.40 to 6.00 | 6.00 to 7.00 | NC(=O)c1cccc(-c2ccc([C@H]3C[C@@H]3N)cn2)c1 (relative stereo) [Example 19, 3-(5-((trans)-2-aminocyclopropyl)pyridin-2-yl)benzamide hydrochloride]
29 | 4.40 to 6.00 | 4.40 to 6.00 | 6.00 to 7.00 | Cc1cccc(-c2ccc([C@H]3C[C@@H]3N)cn2)c1 (relative stereo) [Example 15, (Trans)-2-(6-m-tolylpyridin-3-yl)cyclopropanamine hydrochloride]
30 | 4.40 to 6.00 | 4.40 to 6.00 | 6.00 to 7.00 | N[C@H]1C[C@@H]1c1ccc(-c2ccc3sccc3c2)nc1 (relative stereo) [Example 34, (trans)-2-(6-(benzo[b]thiophen-5-yl)pyridin-3-yl)cyclopropanamine hydrochloride]
31 | – | – | 7.00 to 9.00 | N[C@H]1C[C@@H]1c1ccc(-c2ccc(F)c(O)c2)cc1 (relative stereo) [Example 66, 4′-((trans)-2-aminocyclopropyl)-4-fluorobiphenyl-3-ol hydrochloride]
32 | 4.40 to 6.00 | 4.40 to 6.00 | 7.00 to 9.00 | N#Cc1cccc(-c2ccc([C@H]3C[C@@H]3N)cn2)c1 (relative stereo) [Example 13, 3-(5-((trans)-2-aminocyclopropyl)pyridin-2-yl)benzonitrile hydrochloride]
33 | 4.40 to 6.00 | 4.40 to 6.00 | 7.00 to 9.00 | N[C@H]1C[C@@H]1c1ccc(-c2ccc(F)c(O)c2)nc1 (relative stereo) [Example 23, 5-(5-((trans)-2-aminocyclopropyl)pyridin-2-yl)-2-fluorophenol hydrochloride]
34 | – | – | 6.00 to 7.00 | N[C@H]1C[C@@H]1c1ccc(-c2cccc(NS(=O)(=O)C(F)(F)F)c2)cc1 (relative stereo) [Example 103, N-(4′-((trans)-2-aminocyclopropyl)-[1,1′-biphenyl]-3-yl)-1,1,1-trifluoromethanesulfonamide hydrochloride]
